In US10829484B2, “Compounds and methods for kinase modulation, and indications therefor” (Plexxikon Inc., priority 2015, dated 2020) one finds GI50 data, which are given here for 14 molecules.

Molecules are shown by their SMILES. Where a chain is given by its changes, count along the chain named.

The target of one experiment is T1, BaF3-FLT3-ITD-F691L (Homo sapiens, UniProt P36888, INS600HVDFREYEYD/F691L, cells depend on it).
T1 sequence (P36888 with tags, fused parts or gaps INS600HVDFREYEYD/F691L): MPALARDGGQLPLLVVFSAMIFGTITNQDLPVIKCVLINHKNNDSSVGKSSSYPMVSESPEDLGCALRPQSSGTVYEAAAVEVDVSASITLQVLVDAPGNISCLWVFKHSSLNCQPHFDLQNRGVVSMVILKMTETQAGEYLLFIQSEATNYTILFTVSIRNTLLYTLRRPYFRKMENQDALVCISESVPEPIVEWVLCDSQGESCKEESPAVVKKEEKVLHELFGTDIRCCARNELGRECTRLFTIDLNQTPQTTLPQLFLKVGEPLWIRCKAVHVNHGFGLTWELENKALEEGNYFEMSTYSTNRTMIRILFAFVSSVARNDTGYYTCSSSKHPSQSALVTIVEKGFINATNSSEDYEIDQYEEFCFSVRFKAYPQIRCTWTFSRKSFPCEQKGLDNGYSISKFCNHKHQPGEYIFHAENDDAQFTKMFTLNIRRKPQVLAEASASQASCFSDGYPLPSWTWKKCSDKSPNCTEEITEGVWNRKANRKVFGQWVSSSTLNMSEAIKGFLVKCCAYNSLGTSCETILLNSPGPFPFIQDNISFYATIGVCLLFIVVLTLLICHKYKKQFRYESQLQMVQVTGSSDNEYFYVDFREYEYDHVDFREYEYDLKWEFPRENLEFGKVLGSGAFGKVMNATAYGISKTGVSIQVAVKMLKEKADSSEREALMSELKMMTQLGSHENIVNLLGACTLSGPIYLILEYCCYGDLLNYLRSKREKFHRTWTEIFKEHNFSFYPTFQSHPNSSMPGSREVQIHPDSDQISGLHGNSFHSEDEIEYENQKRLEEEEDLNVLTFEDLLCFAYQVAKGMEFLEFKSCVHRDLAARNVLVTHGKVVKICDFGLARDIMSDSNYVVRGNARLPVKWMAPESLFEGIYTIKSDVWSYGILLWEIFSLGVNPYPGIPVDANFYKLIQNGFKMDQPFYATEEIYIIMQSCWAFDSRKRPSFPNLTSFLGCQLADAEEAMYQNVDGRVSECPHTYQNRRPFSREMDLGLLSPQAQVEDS
Kind of experiment: CTB viability assay CS0047, BaF3-FLT3-ITD-F691L. Conditions: BaF3-FLT3-ITD-F691L cells, CellTiter Blue viability, 72 hours; read-out: Cell Assay: CS0047:BaF3-FLT3-ITD-F691L CTB:IC50. In kind it is cell-based, murine. An excerpt: (§1) Gene constructs containing the human FLT3 sequences FLT3-ITD, FLT3-ITD-F691L, FLT3-ITD-D835V and FLT3-D835V were synthesized by reverse translation of the human protein sequences, with codons optimized for mammalian expression. Sequence of the internal tandem duplication (ITD) was based on the MV4-11 ITD sequence. Synthetic DNA constructs were cloned into the pMSCV puro retroviral vector (Clontech) and transfected into the EcoPack2-293 packaging cell line (Clontech) to generate retroviruses that contain the different FLT3 constructs. Viruses were transduced into the IL-3-dependent, murine […] cell line, Ba/F3, and selected for puromycin resistance and IL-3 independence. All cell lines were cloned by limiting dilution and clones were used for all subsequent cell assays. Overexpression of the FLT3 mutants in the Ba/F3 cells results in constitutive phosphorylation of the exogenous FLT3 protein, which is required for IL-3 independence.
(§2) Cell lines were serum starved overnight in media containing 0.5% FBS, plated at 15,000 cells/well in 96-well white-walled tissue culture plates, and 3-fold serial dilutions of test compounds of Formula I were added for 72 hours at 37° C. CellTiter Blue (CTB, Promega) was added and incubated for an additional 3 hours at 37° C. Fluorescence was read at 560 nm excitation, 590 nm emission. Wells with CTB+media only were used for background subtraction, and the fluorescence of compound-treated cells was normalized to the fluorescence of DMSO-treated cells. IC50s were determined using Igor Pro software. All compounds are assayed in duplicate cell plates.

For a further experiment, the target named is T2, BaF3-FLT3-ITD-D835V (Homo sapiens, UniProt P36888, INS600HVDFREYEYD/D835V, cells depend on it).
T2 sequence (P36888 with tags, fused parts or gaps INS600HVDFREYEYD/D835V): T1 sequence (P36888 with tags, fused parts or gaps INS600HVDFREYEYD/F691L) with L701F, D845V
Kind of experiment: CTB viability assay CS0048, BaF3-FLT3-ITD-D835V. Type of experiment: cell-based, murine. Conditions: BaF3-FLT3-ITD-D835V cells, CellTiter Blue viability, 72 hours; read-out: Cell Assay: CS0048: BaF3-FLT3-ITD-D835V CTB:IC50.
From the text: as §1, §2
On the technique in general: Resazurin is reduced to fluorescent resorufin, in cell work by metabolically active cells.

In the case of `Cc1nn(C)cc1Nc1ncc(-c2ccc(CC(=O)Nc3cc(C4(C(F)(F)F)CC4)on3)c(F)c2)cc1C#N` [P-156, 2-[4-[5-cyano-6-[(1,3-dimethylpyrazol-4-yl)amino]-3-pyridyl]-2-fluorophenyl]-N-[5-[1-(trifluoromethyl)cyclopropyl]isoxazol-3-yl]acetamide], the GI50 at BaF3-FLT3-ITD-F691L and on BaF3-FLT3-ITD-D835V was 10 to 50 nM each time.

In the case of `O=C(Cc1ccc(-c2cnc(Nc3cnccn3)nc2)cc1F)Nc1cc(C2(C(F)(F)F)CC2)on1` [P-086, 2-[2-fluoro-4-[2-(pyrazin-2-ylamino)pyrimidin-5-yl]phenyl]-N-[5-[1-(trifluoromethyl)cyclopropyl]isoxazol-3-yl]acetamide], the GI50 at BaF3-FLT3-ITD-F691L and at BaF3-FLT3-ITD-D835V was 10 to 50 nM each time.

Turning to `CCc1nn(C2CCS(=O)(=O)C2)cc1Nc1ncc(-c2ccc(CC(=O)Nc3cc(C4(C(F)(F)F)CC4)on3)c(F)c2)cn1` (stereo not drawn) [P-012, 2-[4-[2-[[1-(1,1-dioxothiolan-3-yl)-3-ethylpyrazol-4-yl]amino]pyrimidin-5-yl]-2-fluorophenyl]-N-[5-[1-(trifluoromethyl)cyclopropyl]isoxazol-3-yl]acetamide], the GI50 at BaF3-FLT3-ITD-F691L and on BaF3-FLT3-ITD-D835V was 10 to 50 nM each time.

Regarding `COc1cnccc1Nc1ncc(-c2ccc(CC(=O)Nc3cc(C4(C(F)(F)F)CC4)on3)c(F)c2)cn1` [P-105, 2-[2-fluoro-4-[2-[(3-methoxy-4-pyridyl)amino]pyrimidin-5-yl]phenyl]-N-[5-[1-(trifluoromethyl)cyclopropyl]isoxazol-3-yl]acetamide], the GI50 on BaF3-FLT3-ITD-F691L is 10 to 50 nM; at BaF3-FLT3-ITD-D835V it was 50 to 100 nM.

For `Cc1nn(C)cc1Nc1ncc(-c2ccc(CC(=O)Nc3cc(C4(C(F)(F)F)CC4)on3)c(F)c2)c(N)n1` [P-149, 2-[4-[4-amino-2-[(1,3-dimethylpyrazol-4-yl)amino]pyrimidin-5-yl]-2-fluorophenyl]-N-[5-[1-(trifluoromethyl)cyclopropyl]isoxazol-3-yl]acetamide], the GI50 at BaF3-FLT3-ITD-F691L and at BaF3-FLT3-ITD-D835V was 10 to 50 nM in each case.

With `O=C(Cc1ccc(-c2cnc(Nc3cnn(CCO)c3C3CC3)nc2)cc1F)Nc1cc(C2(C(F)(F)F)CC2)on1` [P-210, 2-[4-[2-[[5-cyclopropyl-1-(2-hydroxyethyl)pyrazol-4-yl]amino]pyrimidin-5-yl]-2-fluorophenyl]-N-[5-[1-(trifluoromethyl)cyclopropyl]isoxazol-3-yl]acetamide], the GI50 at BaF3-FLT3-ITD-F691L and at BaF3-FLT3-ITD-D835V was 10 to 50 nM in each case.

As to `Cn1cc(Nc2ncc(-c3ccc(CC(=O)Nc4cc(C5(C(F)(F)F)CC5)on4)c(F)c3)c(C(F)(F)F)n2)cn1` [P-027, 2-[2-fluoro-4-[2-[(1-methylpyrazol-4-yl)amino]-4-(trifluoromethyl)pyrimidin-5-yl]phenyl]-N-[5-[1-(trifluoromethyl)cyclopropyl]isoxazol-3-yl]acetamide], the figures for the GI50 at BaF3-FLT3-ITD-F691L and on BaF3-FLT3-ITD-D835V were 50 to 100 nM and 10 to 50 nM, respectively.

On to `Cc1c(Nc2ncc(-c3ccc(CC(=O)Nc4cc(C5(C(F)(F)F)CC5)on4)c(F)c3)cn2)ncn1C` [P-075, 2-[4-[2-[(l,5-dimethylimidazol-4-yl)amino]pyrimidin-5-yl]-2-fluorophenyl]-N-[5-[1-(trifluoromethyl)cyclopropyl]isoxazol-3-yl]acetamide], for which the GI50 at BaF3-FLT3-ITD-F691L and at BaF3-FLT3-ITD-D835V was 10 to 50 nM each time.

Consider `Cc1nn(C2CC2)cc1Nc1ncc(-c2ccc(CC(=O)Nc3cc(C4(C(F)(F)F)CC4)on3)c(F)c2)c(C)n1` [P-130, 2-[4-[2-[(1-cyclopropyl-3-methylpyrazol-4-yl)amino]-4-methyl-pyrimidin-5-yl]-2-fluorophenyl]-N-[5-[1-(trifluoromethyl)cyclopropyl]isoxazol-3-yl]acetamide], for which the GI50 at BaF3-FLT3-ITD-F691L and at BaF3-FLT3-ITD-D835V was 10 to 50 nM in each case.

Turning to `Cn1cncc1Nc1ncc(-c2ccc(CC(=O)Nc3cc(C4(C(F)(F)F)CC4)on3)c(F)c2)cn1` [P-132, 2-[2-fluoro-4-[2-[(3-methylimidazol-4-yl)amino]pyrimidin-5-yl]phenyl]-N-[5-[1-(trifluoromethyl)cyclopropyl]isoxazol-3-yl]acetamide], the GI50 at BaF3-FLT3-ITD-F691L and on BaF3-FLT3-ITD-D835V was 10 to 50 nM throughout.

As to `COCCn1ncc(Nc2ncc(-c3ccc(CC(=O)Nc4cc(C5(C(F)(F)F)CC5)on4)c(F)c3)cn2)c1C1CC1` [P-204, 2-[4-[2-[[5-cyclopropyl-1-(2-methoxyethyl)pyrazol-4-yl]amino]pyrimidin-5-yl]-2-fluoro-phenyl]-N-[5-[1-(trifluoromethyl)cyclopropyl]isoxazol-3-yl]acetamide], the GI50 on BaF3-FLT3-ITD-F691L and on BaF3-FLT3-ITD-D835V was 10 to 50 nM each time.

For `COc1nc(Nc2cn(C)nc2C)ncc1-c1ccc(CC(=O)Nc2cc(C3(C(F)(F)F)CC3)on2)c(F)c1` [P-117, 2-[4-[2-[(l,3-dimethylpyrazol-4-yl)amino]-4-methoxy-pyrimidin-5-yl]-2-fluorophenyl]-N-[5-[1-(trifluoromethyl)cyclopropyl]isoxazol-3-yl]acetamide], the GI50 at BaF3-FLT3-ITD-F691L fell in the range of 10 to 50 nM.

As to `Cc1nc(Nc2cn(C)cn2)ncc1-c1ccc(CC(=O)Nc2cc(C3(C(F)(F)F)CC3)on2)c(F)c1` [P-119, 2-[2-fluoro-4-[4-methyl-2-[(1-methylimidazol-4-yl)amino]pyrimidin-5-yl]phenyl]-N-[5-[1-(trifluoromethyl)cyclopropyl]isoxazol-3-yl]acetamide], the GI50 at BaF3-FLT3-ITD-F691L is 10 to 50 nM; at BaF3-FLT3-ITD-D835V, 50 to 100 nM.

Turning to `CC(C)c1nn(C)cc1Nc1ncc(-c2ccc(CC(=O)Nc3cc(C4(C(F)(F)F)CC4)on3)c(F)c2)cn1` [P-168, 2-[2-fluoro-4-[2-[(3-isopropyl-1-methyl-pyrazol-4-yl)amino]pyrimidin-5-yl]phenyl]-N-[5-[1-(trifluoromethyl)cyclopropyl]isoxazol-3-yl]acetamide], the GI50 at BaF3-FLT3-ITD-F691L and on BaF3-FLT3-ITD-D835V was 10 to 50 nM in each case.
